Like-named read-outs stand apart in the source and are kept apart here.

What all share (test): Inhibition of fungal growth, MIC scored visually
The test system of test [1] is A.funigatus 94-2766. The test is classed as cell-based. To be noted: Aspergillus fumigatus, 942766. The protocol:
(§1) Test compounds were tested against nine isolates in an eight-point dose response assay ranging from 50 μg/ml to 0.39 μg/ml. Aspergillus MIC's (minimum inhibitory concentrations) were scored visually after 48 and 72 hours at 37° C. […] Amphotericin B (2.5 μg/ml) and 5-flucytosine (2.0 μg ml) were standard controls for each antifungal assay. […] The results are shown below in Table 4, MIC values in μg/ml after 72 hours. HFF toxicity was analyzed after a 24 hour incubation at 37° C. (5% CO2). MTS/PMS was added, and the sample absorbance was read at 450 nm.

Test [2] has as its system A. funigatis ATCC8001. The test is classed as cell-based. Conditions: Aspergillus fumigatus. The method, then: as §1
Test [3] has as its system A. niger. The test is classed as cell-based. Conditions: Aspergillus niger. The method, then:
as §1

In test [4] the test system is C. tropicalis ATCC75O. The test is classed as cell-based. To be noted: Candida tropicalis, 24 hour incubation at 35° C., read-out: Minimum Inhibitory Concentration. The method, then:
as §1

The subject of test [5] is C. albicans ATCC90028. The format is cell-based. To be noted: Candida albicans, 24 hour incubation at 35° C., read-out: Minimum Inhibitory Concentration.
In test [6] the test system is C. parapsilosis ATCC90018. The test is classed as cell-based, Candida parapsilosis. To be noted: Lodderomyces parapsilosis, 24 hour incubation at 35° C., read-out: Minimum Inhibitory Concentration. The method, then:
as §1

The subject of test [7] is C. glabrata (Fluconazole resistant). The format is cell-based, Candida glabrata. To be noted: Nakaseomyces glabratus; fluconazole resistant clinical isolate; 24 hour incubation at 35° C.; read-out: Minimum Inhibitory Concentration.
For test [8], the system named is C. krusei ATCC6258. The format is cell-based, Candida krusei. To be noted: Pichia kudriavzevii, 24 hour incubation at 35° C., read-out: Minimum Inhibitory Concentration. The method, then: as §1

In the case of `CC(C)(C)c1ccc(/C=C2\Oc3cc(O)cc(O)c3C2=O)cc1` [Formula S02], the MIC was greater than 50 µg/mL in test [1] (94-2766, value in parentheses, not defined (scored after 48 and 72 hours), read-out: Minimum Inhibitory Concentration (value in parentheses)); 6.25 µg/mL in test [1] (94-2766 clinical isolate, value outside parentheses, read-out: Minimum Inhibitory Concentration); 6.25 µg/mL in test [2] (ATCC8001, ATCC8001 (X2), value outside parentheses, read-out: Minimum Inhibitory Concentration); greater than 50 µg/mL in test [2] (ATCC8001, read-out: Minimum Inhibitory Concentration (value in parentheses), ATCC8001 (X2), value in parentheses, not defined (scored after 48 and 72 hours)); 12.5 µg/mL in test [2] (ATCC8001, read-out: Minimum Inhibitory Concentration, ATCC8001 (X1), 37° C.); greater than 50 µg/mL in test [3] (clinical isolate, value outside parentheses, read-out: Minimum Inhibitory Concentration). For the same molecule, the MIC is greater than 50 µg/mL in test [3] (value in parentheses, not defined (scored after 48 and 72 hours), read-out: Minimum Inhibitory Concentration (value in parentheses)); 12.5 µg/mL in test [4]; 12.5 µg/mL in test [5]; 6.25 µg/mL in test [6]; 0.39 µg/mL in test [7]; 6.25 µg/mL in test [8].

The record behind these values is US20020086895A1, “Methods of treating fungal infections” (priority 1985, published 2002).
